Literature values in US9877929B2, “Topical vitamin D and ubiquinol oral supplement compositions” (Premier Dental Products Company, priority 2011, dated 2018).

Experiments:
[1] = stable UBIQUINOL supplement

SMILES: COc1c(O)c(C)c(C/C=C(\C)CC/C=C(\C)CC/C=C(\C)CC/C=C(\C)CC/C=C(\C)CC/C=C(\C)CC/C=C(\C)CC/C=C(\C)CC/C=C(\C)CCC=C(C)C)c(O)c1OC [UBIQUINOL]
- time required to reach peak concentration (absorption from the gastrointestinal tract): approximately 6 hours
- time to steady-state concentrations (oral treatment): two
- peak blood values (orally, 150 mg per day of UBIQUINOL in a softgel, within 28 days): 3.84 µg/mL
- water solubility [1]: less than 0.1 mg/ml
